Drawing on BindingDB's records for doi:10.1021/jm9911581 (Cnrs Umr 8532, 2000), this text covers IC50 for four compounds.

For orientation: IC50 means the concentration that gives 50% inhibition.

For the assay, the system named is HIV-1 integrase catalytic core (disintegration assay). Kind of assay: Compound was tested in vitro to inhibit human immuno virus-1 (HIV-1) using enzymatic disintegration assay.
`O=C(O)c1cc(/C=C/c2ccc3ccc(C(=O)O)c(O)c3n2)ccc1O` [2-(3-carboxy-4-hydroxystyryl)-8-hydroxyquinoline-7-carboxylic acid] showed an IC50 of 2.7 µM.

Compound `Oc1cccc2ccc(/C=C/c3ccccc3)nc12` [2-Styryl-quinolin-8-ol] showed an IC50 of more than 100 µM. With `O=C(O)c1ccc2ccc(/C=C/c3ccc(O)cc3)nc2c1O` [8-hydroxy-2-(4-hydroxystyryl)quinoline-7-carboxylic acid], the half-maximal inhibitory concentration (IC50) turned out to be 4.2 µM.

`O=C(O)c1ccc2ccc(/C=C/c3ccccc3)nc2c1O` [8-hydroxy-2-styrylquinoline-7-carboxylic acid] showed an IC50 of 3.4 µM.
